Source: ChEMBL document CHEMBL1154173, “L-proline-catalysed facile green protocol for the synthesis and antimycobacterial evaluation of [1,4]-thiazines” (2009)
Converted amounts (≈) assume the structure as drawn.

The compounds below were run on Mycobacterium tuberculosis (assay: Antimycobacterial activity against multidrug resistant Mycobacterium tuberculosis by agar dilution method).
Format: functional
In the case of CCOC(=O)C1C(c2ccc(C)cc2)NC(c2ccc(C)cc2)C(C(=O)c2ccc(Cl)cc2)S1(=O)=O (racemic), the MIC is reported as 1.48 µM (≈ 0.779 µg/mL). For CCOC(=O)C1C(c2ccc(OC)cc2)NC(c2ccc(OC)cc2)C(C(=O)c2ccc(Cl)cc2)S1(=O)=O (racemic), the MIC was 1.4 µM (≈ 0.781 µg/mL). CCOC(=O)C1C(c2ccc(Cl)cc2)NC(c2ccc(Cl)cc2)C(C(=O)c2ccc(Cl)cc2)S1(=O)=O (racemic) gave an MIC of 5.52 µM (≈ 3.13 µg/mL). CCOC(=O)C1C(c2ccc([N+](=O)[O-])cc2)NC(c2ccc([N+](=O)[O-])cc2)C(C(=O)c2ccc(Cl)cc2)S1(=O)=O (racemic) gave an MIC of 0.68 µM (≈ 0.4 µg/mL). CC[C@@H](CO)NCCN[C@@H](CC)CO [ETHAMBUTOL] gave an MIC of 61.2 µM (≈ 12.5 µg/mL). In the case of NNC(=O)c1ccncc1 [ISONIAZID], the MIC is reported as 45.6 µM (≈ 6.25 µg/mL). For NC(=O)c1cnccn1 [PYRAZINAMIDE], the MIC was 406 µM (≈ 50 µg/mL). CO[C@H]1/C=C/O[C@@]2(C)Oc3c(C)c(O)c4c(O)c(c(/C=N/N5CCN(C)CC5)c(O)c4c3C2=O)NC(=O)/C(C)=C\C=C\[C@H](C)[C@H](O)[C@@H](C)[C@@H](O)[C@@H](C)[C@H](OC(C)=O)[C@@H]1C [RIFAMPIN] was tested, and the MIC was 3.8 µM (≈ 3.13 µg/mL).
